pEC50: −log10 of the molar value.
These molecules were tested against T1, human GPR40 receptor (Homo sapiens, UniProt O14842) (assay: Assay I: IP1 accumulation (IPOne assay system) in 1321N1 cells stably expressing human GPR40 receptor). Conditions: stimulated 1 hour at 37° C., 10% CO2, LiCl 50 mM.
Assay type: cell-based
Procedure: IP1 accumulation measurements using the IPOne assay system—1321N1 cells stably expressing human GPR40 receptor (Euroscreen, Belgium) are seeded 24 h before the assay in black clear-bottom collagen-coated 384-well plates in culture medium containing 10% FCS, 1% Na-Pyruvate and 400 μg/mL G418. IP1 is assayed according to the Manufacturer's description (Cisbio Bioassays, France). In brief, the assay is started by substitution of the culture medium by stimulation buffer (Hepes 10 mM, CaCl2 1 mM, MgCl2 0.5 mM, KCl 4.2 mM, NaCl 146 mM and glucose 5.5 mM, pH 7.4) without LiCl. Cells are stimulated for 1 hour at 37° C., 10% CO2 by addition of the compounds that are diluted in stimulation buffer containing LiCl yielding a final LiCl concentration of 50 mM. Assays are stopped by adding HTRF-conjugates (IP1-d2 and Anti-IP1 cryptate Tb) and lysis buffer, provided by the manufacturer. After an incubation time of 1 hour at room temperature plates are measured using an EnVision™, Perkin Elmer. The obtained fluorescence ratios at 665/615 nM are then used to calculate the pEC50 values using GraphPad Prism 5 (Graphpad Software Inc, USA) by interpolation using an IP1 reference curve and subsequent sigmoidal curve fitting allowing for a variable hill slope.

T1 sequence (O14842 whole entry): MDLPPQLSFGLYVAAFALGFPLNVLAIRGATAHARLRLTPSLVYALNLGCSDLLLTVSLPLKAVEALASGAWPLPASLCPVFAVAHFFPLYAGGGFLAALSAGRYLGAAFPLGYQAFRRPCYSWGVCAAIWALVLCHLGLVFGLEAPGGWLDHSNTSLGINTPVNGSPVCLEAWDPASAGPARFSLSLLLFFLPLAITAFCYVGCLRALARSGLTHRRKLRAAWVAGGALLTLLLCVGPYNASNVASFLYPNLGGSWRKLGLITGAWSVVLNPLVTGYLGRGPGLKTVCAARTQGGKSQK

SMILES | pEC50
N#Cc1ccc2c(c1Cc1ccccc1)CC[C@H]2Oc1ccc2c(c1)OC[C@H]2CC(=O)O [Example 1, {(S)-6-[(R)-4-Benzyl-5-cyano-indan-1-yloxy]-2,3-dihydro-benzofuran-3-yl}-acetic acid] | 8.30
N#Cc1ccc2c(c1Cc1ccc(Cl)nc1)CC[C@H]2Oc1ccc2c(c1)OC[C@H]2CC(=O)O [Example 2, {(S)-6-[(R)-4-(6-Chloro-pyridin-3-ylmethyl)-5-cyano-indan-1-yloxy]-2,3-dihydro-benzofuran-3-yl}-acetic acid] | 7.44
COc1cccc(Cc2c(C#N)ccc3c2CC[C@H]3Oc2ccc3c(c2)OC[C@H]3CC(=O)O)c1 [Example 3, {(S)-6-[(R)-5-Cyano-4-(3-methoxy-benzyl)-indan-1-yloxy]-2,3-dihydro-benzofuran-3-yl}-acetic acid] | 7.62
COc1ccc(Cc2c(C#N)ccc3c2CC[C@H]3Oc2ccc3c(c2)OC[C@H]3CC(=O)O)cc1 [Example 4, {(S)-6-[(R)-5-Cyano-4-(4-methoxy-benzyl)-indan-1-yloxy]-2,3-dihydro-benzofuran-3-yl}-acetic acid] | 8.30
Cc1cccc(C)c1Cc1c(C#N)ccc2c1CC[C@H]2Oc1ccc2c(c1)OC[C@H]2CC(=O)O [Example 5, {(S)-6-[(R)-5-Cyano-4-(2,6-dimethyl-benzyl)-indan-1-yloxy]-2,3-dihydro-benzofuran-3-yl}-acetic acid] | 8.22

Each molecule was assayed against T1, human GPR40 receptor (assay: Assay II: IP1 accumulation (IPOne assay system) in 1321N1 cells stably expressing human GPR40 receptor). Conditions: stimulated 1 h at 37° C., 5% CO2, LiCl 50 mM.
Assay type: cell-based
Procedure: IP1 accumulation measurements using the IPOne assay system—1321N1 cells stably expressing human GPR40 receptor (Euroscreen, Belgium) are seeded 24 h before the assay in white 384-well plates in culture medium containing 10% FCS, 1% Na-Pyruvate and 400 μg/mL G418. IP1 is assayed according to the manufacturer's description (Cisbio Bioassays, France). In brief, the assay is started by substitution of the culture medium by stimulation buffer (Hepes 10 mM, CaCl2 1 mM, MgCl2 0.5 mM, KCl 4.2 mM, NaCl 146 mM, glucose 5.5 mM and LiCl 50 mM, pH 7.4). Cells are stimulated for 1 h at 37° C., 5% CO2 by addition of the compounds that are diluted in stimulation buffer containing LiCl. Assays are stopped by adding HTRF-conjugates (IP1-d2 and Anti-IP1 cryptate Tb) and lysis buffer, provided by the manufacturer. After an incubation time of 1 h at room temperature plates are measured using an EnVision™, Perkin Elmer. The obtained fluorescence ratios at 665/615 […] are then used to calculate the pEC50 values using Assay Explorer 3.3 Software (Accelrys, Inc.) by interpolation using an IP1 reference curve and subsequent sigmoidal curve fitting allowing for a variable hill slope.

SMILES | pEC50
CS(=O)(=O)c1ccc(Cc2c(C(F)(F)F)ccc3c2CC[C@H]3Oc2ccc3c(c2)OC[C@H]3CC(=O)O)cc1 [Example 17, {(S)-6-[(R)-4-(4-Methylsulfonyl-benzyl)-5-trifluoromethyl-indan-1-yloxy]-2,3-dihydro-benzofuran-3-yl}-acetic acid] | 7.62
O=C(O)C[C@@H]1COc2cc(O[C@@H]3CCc4c(Cc5cc(F)cc(F)c5)ccc(F)c43)ccc21 [Example 18, {(S)-6-[(R)-4-(3,5-Difluoro-benzyl)-7-fluoro-indan-1-yloxy]-2,3-dihydrobenzofuran-3-yl}-acetic acid] | 7.57
O=C(O)C[C@@H]1COc2cc(O[C@@H]3CCc4c(Cc5c(F)cccc5F)ccc(F)c43)ccc21 [Example 19, {(S)-6-[(R)-4-(2,6-Difluoro-benzyl)-7-fluoro-indan-1-yloxy]-2,3-dihydrobenzofuran-3-yl}-acetic acid] | 7.64
N#Cc1ccc(Cc2ccc(F)c3c2CC[C@H]3Oc2ccc3c(c2)OC[C@H]3CC(=O)O)cc1 [Example 20, {(S)-6-[(R)-4-(4-Cyano-benzyl)-7-fluoro-indan-1-yloxy]-2,3-dihydrobenzofuran-3-yl}-acetic acid] | 6.23
O=C(O)C[C@@H]1COc2cc(O[C@@H]3CCc4c(Cc5ccc(F)cc5F)ccc(F)c43)ccc21 [Example 21, {(S)-6-[(R)-4-(2,4-Difluoro-benzyl)-7-fluoro-indan-1-yloxy]-2,3-dihydrobenzofuran-3-yl}-acetic acid] | 7.82
N#Cc1ccc2c(c1Cc1ccccc1F)CC[C@H]2Oc1ccc2c(c1)OC[C@H]2CC(=O)O [Example 22, {(S)-6-[(R)-5-Cyano-4-(2-fluoro-benzyl)-indan-1-yloxy]-2,3-dihydro-benzofuran-3-yl}-acetic acid] | 8.22
N#Cc1ccc2c(c1Cc1ccc(F)cc1)CC[C@H]2Oc1ccc2c(c1)OC[C@H]2CC(=O)O [Example 23, {(S)-6-[(R)-5-Cyano-4-(4-fluoro-benzyl)-indan-1-yloxy]-2,3-dihydro-benzofuran-3-yl}-acetic acid] | 7.96
N#Cc1ccc2c(c1Cc1cccc(F)c1)CC[C@H]2Oc1ccc2c(c1)OC[C@H]2CC(=O)O [Example 24, {(S)-6-[(R)-5-Cyano-4-(3-fluoro-benzyl)-indan-1-yloxy]-2,3-dihydro-benzofuran-3-yl}-acetic acid] | 7.92
O=C(O)C[C@@H]1COc2cc(O[C@@H]3CCc4c3ccc(C(F)(F)F)c4Cc3ccc(O)cc3)ccc21 [Example 25, {(S)-6-[(R)-4-(4-Hydroxy-benzyl)-5-trifluoromethyl-indan-1-yloxy]-2,3-dihydrobenzofuran-3-yl}-acetic acid] | 8.70
O=C(O)C[C@@H]1COc2cc(O[C@@H]3CCc4c3ccc(C(F)(F)F)c4Cc3ccc(F)cc3F)ccc21 [Example 26, {(S)-6-[(R)-4-(2,4-Difluoro-benzyl)-5-trifluoromethyl-indan-1-yloxy]-2,3-dihydrobenzofuran-3-yl}-acetic acid] | 8.70
COc1cccc(Cc2c(C(F)(F)F)ccc3c2CC[C@H]3Oc2ccc3c(c2)OC[C@H]3CC(=O)O)c1 [Example 27, {(S)-6-[(R)-4-(3-Methoxy-benzyl)-5-trifluoromethyl-indan-1-yloxy]-2,3-dihydrobenzofuran-3-yl}-acetic acid] | 8.30
N#Cc1ccc2c(c1Cc1c(F)cccc1F)CC[C@H]2Oc1ccc2c(c1)OC[C@H]2CC(=O)O [Example 28, {(S)-6-[(R)-5-Cyano-4-(2,6-difluoro-benzyl)-indan-1-yloxy]-2,3-dihydro-benzofuran-3-yl}-acetic acid] | 8.30
O=C(O)C[C@@H]1COc2cc(O[C@@H]3CCc4c3ccc(C(F)(F)F)c4Cc3cccc(F)c3)ccc21 [Example 29, {(S)-6-[(R)-4-(3-Fluoro-benzyl)-5-trifluoromethyl-indan-1-yloxy]-2,3-dihydrobenzofuran-3-yl}-acetic acid] | 8.52
O=C(O)C[C@@H]1COc2cc(O[C@@H]3CCc4c3ccc(C(F)(F)F)c4Cc3ccc(F)cc3)ccc21 [Example 30, {(S)-6-[(R)-4-(4-Fluoro-benzyl)-5-trifluoromethyl-indan-1-yloxy]-2,3-dihydrobenzofuran-3-yl}-acetic acid] | 8.70
O=C(O)C[C@@H]1COc2cc(O[C@@H]3CCc4c3ccc(C(F)(F)F)c4Cc3ccccc3F)ccc21 [Example 31, {(S)-6-[(R)-4-(2-Fluoro-benzyl)-5-trifluoromethyl-indan-1-yloxy]-2,3-dihydrobenzofuran-3-yl}-acetic acid] | 8.70
N#Cc1ccc2c(c1Cc1cccc(F)c1F)CC[C@H]2Oc1ccc2c(c1)OC[C@H]2CC(=O)O [Example 32, {(S)-6-[(R)-5-Cyano-4-(2,3-difluoro-benzyl)-indan-1-yloxy]-2,3-dihydro-benzofuran-3-yl}-acetic acid] | 8.10
COc1ccc(Cc2c(C(F)(F)F)ccc3c2CC[C@H]3Oc2ccc3c(c2)OC[C@H]3CC(=O)O)cc1 [Example 33, {(S)-6-[(R)-4-(4-Methoxy-benzyl)-5-trifluoromethyl-indan-1-yloxy]-2,3-dihydrobenzofuran-3-yl}-acetic acid] | 8.70
N#Cc1cccc(Cc2c(C(F)(F)F)ccc3c2CC[C@H]3Oc2ccc3c(c2)OC[C@H]3CC(=O)O)c1 [Example 34, {(S)-6-[(R)-4-(3-Cyano-benzyl)-5-trifluoromethyl-indan-1-yloxy]-2,3-dihydrobenzofuran-3-yl}-acetic acid] | 8.40
Cc1ccccc1Cc1c(C(F)(F)F)ccc2c1CC[C@H]2Oc1ccc2c(c1)OC[C@H]2CC(=O)O [Example 35, {(S)-6-[(R)-4-(2-Methyl-benzyl)-5-trifluoromethyl-indan-1-yloxy]-2,3-dihydrobenzofuran-3-yl}-acetic acid] | 8.70
N#Cc1ccccc1Cc1c(C(F)(F)F)ccc2c1CC[C@H]2Oc1ccc2c(c1)OC[C@H]2CC(=O)O [Example 36, {(S)-6-[(R)-4-(2-Cyano-benzyl)-5-trifluoromethyl-indan-1-yloxy]-2,3-dihydrobenzofuran-3-yl}-acetic acid] | 8.70
O=C(O)C[C@@H]1COc2cc(O[C@@H]3CCc4c3ccc(C(F)(F)F)c4Cc3ccc(Cl)cc3)ccc21 [Example 37, {(S)-6-[(R)-4-(4-Chloro-benzyl)-5-trifluoromethyl-indan-1-yloxy]-2,3-dihydrobenzofuran-3-yl}-acetic acid] | 8.40
COc1ccc(Cc2c(C(F)(F)F)ccc3c2CC[C@H]3Oc2ccc3c(c2)OC[C@H]3CC(=O)O)cn1 [Example 38] | 9.00
COc1ccc(OC)c(Cc2c(C(F)(F)F)ccc3c2CC[C@H]3Oc2ccc3c(c2)OC[C@H]3CC(=O)O)c1 [Example 40, {(S)-6-[(R)-4-(2,5-Dimethoxy-benzyl)-5-trifluoromethyl-indan-1-yloxy]-2,3-dihydrobenzofuran-3-yl}-acetic acid] | 8.30

Source: US8809376B2, “Indanyloxydihydrobenzofuranylacetic acids” (Boehringer Ingelheim International GmbH, priority 2012, dated 2014)
